Experimental data as given in patent EP2289882A1, “3-oxopiperazinium derivatives as agonists of nerve growth factor and their use as medicaments” (Institut d'Investigacions Biomédiques August PI I Sunyer, priority 2009, dated 2011).

What was measured:
RN22 cells = assay: RN22 cell survival assay under CuSO4 stress (MTT); assay type: cell-based, rat; settings: CuSO4 150 µM stress, 1 ng/ml - 10 µg/ml, 24 h; RN22 expresses p75 but not TrkA
Protocol: Compounds identified from the initial library screening were also tested to assess their capacity to promote cell survival. To delineate p75 signalling independent of TrkA, we used a rat schwannoma cell line (RN22) expressing p75, but not TrkA, (Gentry et al., 2000). Cell culture. The rat schawnnoma cell line RN22 was cultured in 5% CO2 at 37°C in Dulbecco's modified Eagle's medium (DMEM) with 10% fetal bovine serum (FBS) and penicillin/streptomycin. RN22 cells were plated at 20,000 cells/well on a 24-well plate in DMEM alone and after allowing the cells to adhere for 3 days, cupper sulphate (CuSO4) (150 µM) was added with or without NGF (100 ng/ml) or the peptidomimetic molecules A26-23, A26-24 and A28-A6 at different concentrations (1 ng/ml - 10 µg/ml) to generate stress and cell death. After 24 h cell viability was studied by determining the amount of yellow MTT (Sigma) that was reduced to insoluble purple formazan. After removing the medium, the water-insoluble formazan was solubilised with DMSO (Sigma), and the dissolved material was measured spectrophotometrically at a wavelength of 570 nm, subtracting the background at 650 nm (Frade, 2005).

PC12 cells = assay: PC12 cell differentiation (neurite outgrowth); assay type: cell-based; settings: 3 days, 2 ng/ml to 50 µg/ml, reduced serum (0.5% FBS and 1% HS); compared with NGF 100 ng/ml
Protocol: PC 12 cell differentiation was measured by plating cells onto collagen-coated 24-wells plates. NGF (100 ng/ml) or the small chemicals at different concentrations were added and the percentage of cells with neurite processes greater than two cell bodies in length were counted after relevant treatment. For each experiment at least 300 cells were randomly measured (Burstein and Greene, 1978). Cell culture. PC12 cells were maintained at 37°C in DMEM supplemented with 2.5% FBS, 15% of Horse serum (HS) and penicillin/streptomycin in a humidified 5% CO2 incubator. The cells were grown on 60-and 100-mm tissue culture dishes (Becton Dickinson). PC 12 cells were cultured for 3 days in the presence of the peptoids (from 2 ng/ml to 50 µg/ml) under reduced serum conditions (0.5% FBS and 1% HS).

Row | Molecule | survival of RN22 cells (cell viability, MTT) (RN22 cells) | differentiation of PC12 cells (percentage of cells with neurite processes greater than two cell bodies in length) (PC12 cells)
1 | 8-[2-(2-(5-methyl-1H-indol-2-yl)ethylamino)-2-oxoethyl]-7-oxo-8-aza-5-azoniaspiro[4.5]decane [A28-A6] | not to promote survival of RN22 cells | induce the differentiation of PC12 cells at different concentrations to an extent substantially comparable with that induce by NGF
2 | C[N+]1(C)CCN(CC(=O)NCCc2ccc([N+](=O)[O-])cc2)C(=O)C1.[Cl-] [A26-23, 1,1-dimethyl-4-[2-(4-nitrophenethylamino) -2-oxoethyl] -3-oxopiperazinium chloride] | not to promote survival of RN22 cells | induce the differentiation of PC12 cells at different concentrations to an extent substantially comparable with that induce by NGF
3 | C[N+]1(Cc2ccccc2)CCN(CC(=O)NCCc2ccc([N+](=O)[O-])cc2)C(=O)C1.[Cl-] (stereo not drawn) [A26-64, 1-benzyl-1-methyl-4-[2-(4-nitrophenethylamino)-2-oxoethyl]-3-oxopiperazinium chloride] | not to promote survival of RN22 cells | induce the differentiation of PC12 cells at different concentrations to an extent substantially comparable with that induce by NGF
